Measured values published in patent publication US12630523B2, “Isoquinoline derivatives for use as antiviral and antitumour agents” (priority 2021, dated 2026).

Assays:
SiHa (ATCC HTB-35) = assay: Monolayer SRB assay, SiHa; format: cell-based; details: Homo sapiens, 72 hrs, HPV16
Protocol: Various cell culture cells grown as monolayers are harvested from exponential growing cultures after treatment with various OC compounds at different concentrations. For this depending on the cell line, 10.000 to 30.000 cells were plated in 96-well flat-bottom microtiter plates. After a 24 h recovery period to allow cells to resume exponential growth, supernatants are discarded and 100 μl of culture medium (eight control wells/plate) or culture medium with the test compound are added by a liquid handling robotic system (Microlab® Starlet, Hamilton) and treatment continued for 72 hrs. Compounds are applied at 9 concentrations and eight wells/concentration). At least three independent experiments are performed. For SRB staining, cells are fixed with SRB01 (Tab. 5) for 1 h at 4° C. […] Optical density is assessed using a plate-reader (Sunrise, Tecan©) at 540 nm.
Concentrations required for half maximal response of the compound for cell growth inhibition (EC50) is calculated by non-linear regression (log[conc. of inhibitor] versus response (% T/C)) using the analysis software GraphPad Prism®, Prism 5 for windows, version 5.01 (GraphPad Software Inc., CA).

HPV16 E7 protein = assay: Western blot of E7 steady state level in CaSki cells; format: cell-based; details: 10 μM, up to 24 hours
Protocol: B) For cells in cell culture the following procedure for the preparation of a total cell extract is used. Freshly seeded cells are grown for 24 hours to obtain 65-75% confluency (corresponds for CaSki cells to a plating of approx. 2×10^6 cells/10 cm Ø cell culture dish). Cell culture dishes with medium are out on ice for 5 minutes.
Lysed cells are scraped off the dish and transfers to microcentrifuge tubes, followed by 2×10 sec sonication to complete cell lysis at room temperature. The samples are heated at 96° C. for 10 min and centrifuged for 5 min at 12000 g at room temperature.
Endogenous E7 proteins are rigid, tightly folded molecules and are bound only transiently onto […] membranes during protein blotting procedures, in particular employing semidry methods. Thus, for protein blotting a buffer system containing 40% (v/v) of Methanol is used. These buffers tend to be unstable and therefore freshly prepared solutions need to be used. E7 antibodies are used in TBET at pH7.8. Under these conditions western blot transfer is not complete for most other proteins. If staining of different proteins of the same gel is done, the gel is divided prior to blotting, 40% Methanol is used in the transfer buffer for E7 and a transfer buffer containing 20% Methanol is used for most of the other markers. […]

| Structure (SMILES) | EC50 (SiHa (ATCC HTB-35)) [µM] | HPV16 E7 protein level, time course (HPV16 E7 protein) | HPV16 E7 protein level, time course (HPV16 E7 protein; listed as Vsp035) |
| --- | --- | --- | --- |
| Cc1ccc(CN2C(=O)c3ccccc3[C@H](C(=O)Nc3cccc(N4CCN(C)CC4)c3)[C@@H]2c2ccc(C(F)(F)F)cc2)cc1 [OC246, N-[3-(4-methylpiperazin-1-yl)phenyl]-2-[(4-methylphenyl)methyl]-1-oxo-3-[4-(trifluoromethyl)phenyl]-1,2,3,4-tetrahydroisoquinoline-4-carboxamide] | 3.53 |  |  |
| CN1CCC(CN2C(=O)c3ccccc3[C@H](C(=O)Nc3cccc(N4CCN(C)CC4)c3)[C@H]2c2ccc(C(F)(F)F)cc2)CC1 [VSP035, (3S,4S)-N-[3-(4-methylpiperazin-1-yl)phenyl]-2-[(1-methylpiperidin-4-yl)methyl]-1-oxo-3-[4-(trifluoromethyl)phenyl]-1,2,3,4-tetrahydroisoquinoline-4-carboxamide] |  | steady decline over time | stable e7 reduction |
